Where two headings read alike, the source gives them in different places.
Key:
[1] = system: ventricular fibrillations caused by inhaling chloroform; assay: Antiarythmic: ventricular fibrillations caused by inhaling chloroform in mouse; assay type: in vivo; details: ip, intraperitoneal, read-out: Antagonism to fibrillations caused by chloroform with a mouse, DE50
Text: Administered intraperitoneally, the compounds of formula (I) are able to protect the mouse against ventricular fibrillations caused by inhaling chloroform.

[2] = system: isolated duodenum of a rat (barium chloride); assay: Spasmolytic: contraction by barium chloride of isolated duodenum of a rat
Description: Compounds of formula I, introduced in the survival medium, are capable of opposing the contacting action of barium chloride on the isolated duodenum of a rat. This activity is determined either by taking papaverine as the standard or by calculating the DE50 of the compound tested.

[3] = system: painful stretchings following intraperitoneal injection of acetic acid; assay: Analgesic: painful stretchings following intraperitoneal acetic acid in mouse; assay type: in vivo; details: 100 mg/kg/PO, read-out: Percentage reduction in the number of painful stretchings
Text: The compounds of formula (I) administered orally to a mouse are capable of reducing the number of painful stretchings following the intraperitoneal injection of acetic acid.

[4] = system: ptosis caused by reserpine; assay: Anti-depressive: antagonism against ptosis caused by intravenous reserpine; assay type: in vivo; details: for ED50: po, Table XII, read-out: Antagonism against ptosis caused by reserpine, DE50
Description: (§1) In this regard, the compounds of formula I differ unexpectedly from the compounds of U.S. Pat. No. 3,726,900, as shown by comparative testing.
(§2) The anti-depressive properties of additional analog compounds were tested by the same tests. In these tests, the comparison compounds had the formula [drawing 28] The specific compounds tested and the test results are indicated in Table XIII.

[5] = Acute toxicity / mortality, oral, mice; assay type: in vivo; details: mouse, in vivo; for mortality: read-out: Percentage of mortality with mice; for LD50: mice, oral, Table XI, read-out: LD50 (mice)
Text: (§3) As is shown by the preceding results and by those given in Table XIV below, the difference between pharmacologically active doses and lethal doses is sufficiently great to allow the use of compounds of formula (I) in therapeutics.

mice = assay: Acute toxicity / mortality, oral, mice; assay type: in vivo; details: oral; Table XII
Text: as §3

urinary elimination = assay: Diuretic: volume of urine in mouse; assay type: in vivo; details: 4 hours, versus controls, read-out: Percentage increase in urinary elimination; for change in vivo at 50 mg/kg: 50 mg/kg/PO
Description: The compounds of formula (I) administered orally to a mouse simultaneously with a volume of 1 ml of sodium chloride isotonic solute per 25 g of body weight are able to cause an increase of the volume of urine given compared with controls, this volume being measured for the 4 hours following administration.

[6] = system: gastric ulcers (Shay ulcers); assay: Antiulcerous: gastric ulcers caused in a rat by ligature of the pylorus (Shay ulcers); assay type: in vivo; details: 50 mg/kg, intraduodenal
Description: Compounds of formula (I) administered intraduodenally reduce the size of gastric ulcers caused in a rat by ligature of the pylorus (Shay ulcers). As examples, the intradeuodenal administration of 50 mg/kg of the compounds of code numbers 72143 and 7251 bring about a 70% and 65% reduction respectively of the Shay ulcer.

[7] = system: lethal effect of yohimbine; assay: Anti-depressive: potentialization of lethal effect of yohimbine; assay type: in vivo; details: Table XII
[8] = system: bronchoconstrictions provoked by serotonine; assay: Antiserotonine: bronchoconstrictions provoked by intravenous serotonine in guinea pigs (Konzett and Rossler test); assay type: in vivo; details: Cavia porcellus, serotonine bronchoconstriction, read-out: Test of Konzett and Rossler DE50
Text: (§4) For purposes of comparison, compounds of the formula (I) were compared, as to their antiserotonine properties, with a respresentative sampling of compounds disclosed in U.S. Pat. No. 3,726,900. The comparison compounds tested have the formula [drawing 23]

[9] = system: lethal effect of yohimbine; assay: Anti-depressive: potentialization of lethal effect of yohimbine; assay type: in vivo; details: at 100 mg/kg/PO
Description: as §1, §2

[10] = system: cough caused by stimulation of the upper laryngeal nerve; assay: Anti-cough: cough caused by stimulation of the upper laryngeal nerve in an anaesthetized cat; assay type: in vivo; details: 25 mg/kg/ID
[11] = system: respiratory depression caused by morphine; assay: Respiratory analeptic: respiratory depression caused by morphine in anaesthetized guinea pig; assay type: in vivo; details: 5 mg/kg/IV
Description: The compounds of formula (I) administered intravenously to an anaesthetized guinea pig are capable of opposing respiratory depression caused by morphine. As an example, with a dose of 5 mg/kg/IV, compound 70358 increased respiratory frequency by 65%.

[12] = system: explorations in the escape enclosure; assay: Sedative: number of explorations in the escape enclosure, mouse; assay type: in vivo; details: 100 mg/kg/PO
Description: The compounds of formula (I) administered orally to a mouse reduce the number of explorations in the escape enclosure. As examples, the administration of 100 mg/kg/PO of the compounds of code numbers 71562 and 72142 bring about a 40% reduction in the number of explorations in the escape enclosure in each case.

[13] = system: isolated fundus of rats (serotonine); assay: Antiserotonine: contractions of the isolated fundus of rats provoked by serotonine; details: in vitro
Text: as §4

[14] = system: coronary vessels of the isolated heart of a guinea pig; assay: Vasodilatory: flow in coronary vessels of isolated heart of a guinea pig; details: 0.5 μg/ml in perfusion liquid
Description: The compounds of formula (I) are able to increase the flow in the coronary vessels of the isolated heat of a guinea pig when they are added to the perfusion liquid of this organ. As an example, by adding 0.5 μg/ml of the compound code number 71562 to the perfusion liquid of the isolated heart of a guinea pig, a 45% increase in the flow of the coronary vessels was observed.

[15] = system: isolated ileum of a guinea pig (histamine); assay: Antihistamine: contraction by histamine of isolated ileum of a guinea pig
Description: The compounds of formula (I) introduced in the survival medium are able to oppose the contracting action of histamine on the isolated ileum of a guinea pig. This activity is calculated by the DE50 of the tested compounds.

[16] = system: local edema caused by carraghenine; assay: Antiinflammatory: local plantar edema caused by carraghenine in rat; assay type: in vivo; details: 30 mg/kg/PO
Text: These properties bring about a reduction of the local edema, caused by injecting a rat under the plantar with a phlogogenic agent such as carraghenine, following oral administration of compounds of formula (I).

[17] = at 50 mg/kg/PO, result in words

With `CN(C)C(=O)CN1CCN(CC2COC3(O2)c2ccccc2C=Cc2ccccc23)CC1` (centres unmarked) [compound 7251] the ED50 [1] was 100 mg/kg, the “DE50 (spasmolytic)” value [2] was 3.50 µg/mL and the inhibition in vivo at 100 mg/kg [3] was 50%. For the same molecule, the “Antagonism against ptosis caused by reserpine” value (“Antagonism … by reserpine” below) [4, 17] was “Inactive”, the mortality ([5]; 2000 mg/kg/PO) was 0% and the LD50 [5] was greater than 2000 mg/kg. For the same molecule, the LD50 (mice) was greater than 2000 mg/kg/P.O, the change in vivo at 50 mg/kg (urinary elimination) was 45% and the “Reduction of the Shay ulcer” value [6] was 65%.

With `CN(C)CC1COC2(O1)c1ccccc1CCc1ccccc12` (centres unmarked) [compound 69257, reference compound] the “Potentialization of lethal effect of yohimbine, DE50” value [7] was 10 mg/kg/PO, the ED50 [4] was 35 mg/kg and the LD50 [5] was 550 mg/kg. For the same molecule, the ED50 [8] was 0.4 mg/kg.

In the case of `CN(C)CC1COC2(O1)c1ccccc1C=Cc1ccccc12` (centres unmarked) [compound 70312, reference compound], the “Potentialization of lethal effect of yohimbine, DE50” value [7] is reported as 46 mg/kg/PO, the ED50 [4] is reported as 13 mg/kg and the LD50 [5] is reported as 480 mg/kg. The ED50 [8] was 0.43 mg/kg.

With `CN1CCN(CC2COC3(O2)c2ccccc2CCc2ccccc23)CC1` (centres unmarked) [compound 70358] the Spasmolytic activity ([2]; relative to papaverine as the standard) was 1.5 × papaverine, the inhibition in vivo at 100 mg/kg [3] was 43% and the “Potentialization of lethal effect of yohimbine” value [9] was 40%. For the same molecule, the “Reduction of cough, duration” value [10] was greater than 60 mm, the “Reduction of cough, intensity” value [10] was 100% and the “Antagonism … by reserpine” value ([4]; at 100 mg/kg/PO) was “Inactive”. The mortality ([5]; 1000 mg/kg/PO) was roughly 50%, the LD50 [5] was 1000 mg/kg and the “Increase in respiratory frequency” value [11] was 65%.

With `O=C(CN1CCN(CC2COC3(O2)c2ccccc2C=Cc2ccccc23)CC1)N1CCCC1` (centres unmarked) [compound 71562] the ED50 [1] was 125 mg/kg, the “Reduction in the number of explorations in the escape enclosure” value [12] was 40% and the inhibition in vivo at 100 mg/kg [3] was 47%. The Antagonisms against contractions of fundus of rat, DE50 [13] was 0.1 µg/mL, the mortality ([5]; 2000 mg/kg/PO) was roughly 50% and the LD50 [5] was 2000 mg/kg. For the same molecule, the change in vivo at 50 mg/kg (urinary elimination) was 70% and the “Increase in the flow of the coronary vessels” value [14] was 45%.

In the case of `CCCNC(=O)CN1CCN(CC2COC3(O2)c2ccccc2C=Cc2ccccc23)CC1` (centres unmarked) [compound 72142], the “Antihistamine activity DE50” value [15] is reported as 0.6 µg/mL, the ED50 [1] is reported as 85 mg/kg and the “Reduction in the number of explorations in the escape enclosure” value [12] is reported as 40%. For the same molecule, the “DE50 (spasmolytic)” value [2] was 2.50 µg/mL, the inhibition in vivo at 100 mg/kg [3] was 70% and the “Potentialization of lethal effect of yohimbine” value [9] was 40%. For the same molecule, the “Antagonism … by reserpine” value ([4]; at 100 mg/kg/PO) was “Inactive”, the mortality ([5]; 1650 mg/kg/PO) was roughly 50% and the LD50 [5] was 1650 mg/kg. For the same molecule, the change in vivo at 50 mg/kg (urinary elimination) was 55% and the ED50 [8] was 0.6 mg/kg.

With `CN1CCN(CC2COC3(O2)c2ccccc2C=Cc2ccccc23)CC1` (centres unmarked) [compound 72143] the “Antihistamine activity DE50” value [15] was 0.25 µg/mL, the “Percentage reduction of the edema” value [16] was 70% and the “DE50 (spasmolytic)” value [2] was 3.75 µg/mL. For the same molecule, the “Antagonism … by reserpine” value [4, 17] was “Inactive”, the mortality ([5]; 300 mg/kg/PO) was roughly 50% and the LD50 [5] was 300 mg/kg. For the same molecule, the change in vivo at 25 mg/kg (urinary elimination; 25 mg/kg/PO) was 70% and the “Reduction of the Shay ulcer” value [6] was 70%.

— patent US4049660A, “N-substituted derivatives of 4 (N-piperazinylmethyl) spiro dibenzocycloheptadi- (or tri-) ene-5, 2-dioxolane (1,3) their method of preparation and their application in therapeutics” (Delalande S.A., priority 1971, dated 1977)
